The source of these data is patent EP1073452B1, “USE OF […] TREATING CYTOKINE MEDIATED HEPATIC INJURY” (University of Kentucky Research Foundation, priority 1998, dated 2003).

For the experiment, the system named is Male BALB/c HSD mice. As to the kind of experiment: Survival of mice rendered hepatotoxic by LPS/GAL treatment (model for septic shock / hepatic failure). In kind it is in vivo. The protocol:
Hepatic failure was induced in mice by intraperitoneal injections of a mixture of lipopolysaccharide (LPS) (100 µg/kg) and D-galactosamine (GAL) (700 mg/kg) to form LPS/GAL. LPS is a bacterial endotoxin that is a major stimulus for production of many cytokines, particularly tumor necrosis factor (TNF), thought to be involved in liver injury. GAL is an amino sugar that sensitizes hepatocytes by depleting the base uridine and thus preventing hepatic transcription, and sensitizes animals to normally innocuous amounts of endotoxin or TNF. The LPS/GAL treatment induces fulminate hepatic and multiorgan failure, and serves as a model for septic shock. The major effects of LPS/GAL are elicited by the inflammatory cytokine TNF-α. Hepatocytes sensitized to TNF-α then undergo apoptosis or programmed cell death in response to inflammatory processes.
Mice were treated with deltorphin and were subsequently rendered hepatotoxic by LPS/GAL treatment. An emulsion of deltorphin I SEQ ID NO:1 (Tyr-D-Ala-Phe-Asp-Val-Val-Gly-NH2) was prepared at a concentration of 80 µg/200 µl in sterile phosphate buffered saline (PBS). An emulsion of DADLE (Tyr-D-Ala-Gly-Phe-D-Leu-enkephalin) was also prepared at a concentration of 80 µg/200 µl in sterile PBS. Male BALB/c HSD mice were treated by intraperitoneal injections according to the following protocol. Control mice (n = 7) received only LPS/GAL (280 µl) at 6.5 h. Deltorphin I SEQ ID NO:1 treated mice (n = 15) received injections of 4 mg/kg deltorphin I SEQ ID NO:1 at 0 h, 2 h, 4 h, 6 h and 7.5 h and received an LPS/GAL injection at 6.5 h. DADLE treated mice (n = 15) received 4 mg/kg DADLE at 0 h, 2 h, 4 h, 6 h and 7.5 h and received an LPS/GAL injection at 6.5 h.
Both control and treated mice were monitored at 15 h, 20 h, 40 h and 65 h after the last injection. TABLE

[1] abbreviates: n = 15, 4 mg/kg intraperitoneal at 0 h, 2 h, 4 h, 6 h and 7.5 h, LPS/GAL at 6.5 h, 15 h after the last injection.
Setting [2] is: n = 15, 4 mg/kg intraperitoneal at 0 h, 2 h, 4 h, 6 h and 7.5 h, LPS/GAL at 6.5 h, 20 h after the last injection.
Setting [3] is: n = 15, 4 mg/kg intraperitoneal at 0 h, 2 h, 4 h, 6 h and 7.5 h, LPS/GAL at 6.5 h, 40 h after the last injection.
[4] abbreviates: n = 15, 4 mg/kg intraperitoneal at 0 h, 2 h, 4 h, 6 h and 7.5 h, LPS/GAL at 6.5 h, 65 h after the last injection.

Consider “Tyr-D-Ala-Gly-Phe-D-Leu-enkephalin [DADLE]”, for which the survival time entry (mice made septic by LPS/GAL treatment, compared to mice receiving LPS/GAL only) is given as “not as striking”. Under setting [1], the “SURVIVAL 15 Hours (number of mice)” value stood at 3 and the “SURVIVAL 15 Hours (percent)” value came out at 20%. In addition, under setting [2], the “SURVIVAL 20 Hours (number of mice)” value was 3 and the “SURVIVAL 20 Hours (percent)” value amounted to 20%. Besides, under setting [3], the “SURVIVAL 40 Hours (number of mice)” value is reported as 3 and the “SURVIVAL 40 Hours (percent)” value is 20%. Besides, under setting [4], the “SURVIVAL 65 Hours (number of mice)” value stood at 3 and the “SURVIVAL 65 Hours (percent)” value was determined as 20%.
